One assay relates to HeLa. Briefly: ATP-based viability loss in HeLa cells – cell-based, CellTiter-Glo luminescence, cherry-pick samples, cytotoxicity control for MITF activator project, dose response (AID 540259). The note with it: Homo sapiens. The format is functional. On the technique in general: In ATP-based viability assays light output follows the ATP content of the culture.
Assay [1] concerns the target Dual specificity protein phosphatase 3 (Homo sapiens, UniProt P51452). Briefly: SAR VHR1 Fluorescent Assay for In Vitro dose response studies Set 2. [Related pubchem assays (depositor defined):AID1654, AID1661, AID1878]. The format is functional.
The target in assay [2] is T1, Dual specificity protein phosphatase 6 (Rattus norvegicus, UniProt Q64346).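 Further: confirmatory in vitro dose-response testing of MKP-3 inhibition; recombinant His-tagged MKP-3 made in E. coli BL21 with OMFP substrate.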
T1 sequence (Q64346 whole entry): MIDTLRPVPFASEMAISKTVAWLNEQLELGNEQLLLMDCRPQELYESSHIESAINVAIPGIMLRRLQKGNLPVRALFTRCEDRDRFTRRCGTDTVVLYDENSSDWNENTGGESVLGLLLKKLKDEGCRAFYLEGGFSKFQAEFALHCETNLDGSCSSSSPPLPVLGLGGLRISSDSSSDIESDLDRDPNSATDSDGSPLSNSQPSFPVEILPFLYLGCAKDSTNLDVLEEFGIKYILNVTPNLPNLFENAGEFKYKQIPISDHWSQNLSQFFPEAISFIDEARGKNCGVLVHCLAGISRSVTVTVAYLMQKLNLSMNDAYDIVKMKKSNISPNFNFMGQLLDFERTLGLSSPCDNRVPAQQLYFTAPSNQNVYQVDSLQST
The format is functional.

The target in assay [3] is Voltage-gated inwardly rectifying potassium channel KCNH2 (Homo sapiens, UniProt Q12809). As to conditions: Potency.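 Further: confirmatory quantitative high-throughput screen measuring inhibition of hERG channel activity.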
Assay [4] concerns the target Glyceraldehyde-3-phosphate dehydrogenase (Homo sapiens, UniProt P04406).
The next assay deals with Nonstructural protein 1 (Influenza A virus, UniProt Q194T2). It is filed as functional, Influenza A virus (A/California/07/2009(H1N1)).
The target of assay [5] is Alkaline phosphatase, placental type (Homo sapiens, UniProt P05187). Briefly: human placental alkaline phosphatase inhibition – biochemical, luminescence, confirmation (AID 1512). The format is functional.
A further assay can be described thus: cells. It is filed as functional.
For assay [6], the target named is T2, Mannose-6-phosphate isomerase (Homo sapiens, UniProt P34949).
T2 sequence (P34949 whole entry): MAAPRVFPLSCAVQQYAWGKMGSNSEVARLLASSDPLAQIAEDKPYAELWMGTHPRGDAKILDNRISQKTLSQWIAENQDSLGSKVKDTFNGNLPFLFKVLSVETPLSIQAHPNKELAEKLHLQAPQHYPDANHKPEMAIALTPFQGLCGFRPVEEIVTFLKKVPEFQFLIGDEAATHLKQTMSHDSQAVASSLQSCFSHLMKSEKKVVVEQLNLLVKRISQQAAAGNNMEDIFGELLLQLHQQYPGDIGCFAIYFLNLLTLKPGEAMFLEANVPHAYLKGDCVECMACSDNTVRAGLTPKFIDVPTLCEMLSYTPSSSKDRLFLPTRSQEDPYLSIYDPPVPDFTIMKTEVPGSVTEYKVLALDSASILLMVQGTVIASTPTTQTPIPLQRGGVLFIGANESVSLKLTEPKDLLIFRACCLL
Briefly: MPI inhibition at elevated mannose 6-phosphate – biochemical, fluorescence intensity, high mannose 6-phosphate, primary screen (AID 1220).

Assay [7] deals with T2, Mannose-6-phosphate isomerase. The assay is described as follows: phosphomannose isomerase inhibition – biochemical, fluorescence intensity, confirmation (AID 1535).
In assay [8] the target is Heat shock protein HSP 90-alpha (Homo sapiens, UniProt P07900). The format is functional, organism-based.
The target in another assay is T3, Phosphomannomutase 2 (Homo sapiens, UniProt O15305).
T3 sequence (O15305 whole entry): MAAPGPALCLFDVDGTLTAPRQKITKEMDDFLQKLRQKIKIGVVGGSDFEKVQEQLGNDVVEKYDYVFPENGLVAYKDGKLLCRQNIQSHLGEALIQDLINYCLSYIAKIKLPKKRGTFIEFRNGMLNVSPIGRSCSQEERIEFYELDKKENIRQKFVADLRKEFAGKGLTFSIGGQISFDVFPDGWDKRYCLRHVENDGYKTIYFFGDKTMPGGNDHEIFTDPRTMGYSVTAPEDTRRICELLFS
The assay is described as follows: Counter screen SAR assay for PMM2 inhibitors via a fluorescence intensity assay. [Related pubchem assays (depositor defined):AID1545, AID1574]. For orientation: A counterscreen serves to expose hits that act by an unwanted route or on another target.

The target of assay [9] is Eukaryotic translation initiation factor 4E (Mus musculus, UniProt P63073). The assay is described as follows: blockers of eIF4G binding by eIF4E – biochemical, TR-FRET, dose response (AID 855).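 Further: potency for disrupting eIF4E binding to eIF4GI seen as loss of FRET.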 The format is functional.
For assay [10], the system named is Candida albicans. Briefly: fluconazole-resistant Candida strain growth inhibitors – CaCi-8 strain, dry powder, set 4, dose response (AID 488950). The format is functional, organism-based.
The test system of assay [11] is Candida albicans. The assay is described as follows: resistant Candida growth with fluconazole co-treatment – CaCi-8 strain, Alamar Blue, dry powder, set 2, dose response (AID 488909). The format is functional, organism-based. On the technique in general: Resazurin is reduced to fluorescent resorufin, in cell work by metabolically active cells.
In assay [12] the test system is Candida albicans. The assay is described as follows: C. albicans growth inhibition with fluconazole – CaCi-2 strain, Alamar Blue, dry powder, set 4, dose response (AID 488943). The format is functional, organism-based.
A further assay deals with T4, Hexokinase HKDC1 (Homo sapiens, UniProt Q2TB90).
T4 sequence (Q2TB90 whole entry): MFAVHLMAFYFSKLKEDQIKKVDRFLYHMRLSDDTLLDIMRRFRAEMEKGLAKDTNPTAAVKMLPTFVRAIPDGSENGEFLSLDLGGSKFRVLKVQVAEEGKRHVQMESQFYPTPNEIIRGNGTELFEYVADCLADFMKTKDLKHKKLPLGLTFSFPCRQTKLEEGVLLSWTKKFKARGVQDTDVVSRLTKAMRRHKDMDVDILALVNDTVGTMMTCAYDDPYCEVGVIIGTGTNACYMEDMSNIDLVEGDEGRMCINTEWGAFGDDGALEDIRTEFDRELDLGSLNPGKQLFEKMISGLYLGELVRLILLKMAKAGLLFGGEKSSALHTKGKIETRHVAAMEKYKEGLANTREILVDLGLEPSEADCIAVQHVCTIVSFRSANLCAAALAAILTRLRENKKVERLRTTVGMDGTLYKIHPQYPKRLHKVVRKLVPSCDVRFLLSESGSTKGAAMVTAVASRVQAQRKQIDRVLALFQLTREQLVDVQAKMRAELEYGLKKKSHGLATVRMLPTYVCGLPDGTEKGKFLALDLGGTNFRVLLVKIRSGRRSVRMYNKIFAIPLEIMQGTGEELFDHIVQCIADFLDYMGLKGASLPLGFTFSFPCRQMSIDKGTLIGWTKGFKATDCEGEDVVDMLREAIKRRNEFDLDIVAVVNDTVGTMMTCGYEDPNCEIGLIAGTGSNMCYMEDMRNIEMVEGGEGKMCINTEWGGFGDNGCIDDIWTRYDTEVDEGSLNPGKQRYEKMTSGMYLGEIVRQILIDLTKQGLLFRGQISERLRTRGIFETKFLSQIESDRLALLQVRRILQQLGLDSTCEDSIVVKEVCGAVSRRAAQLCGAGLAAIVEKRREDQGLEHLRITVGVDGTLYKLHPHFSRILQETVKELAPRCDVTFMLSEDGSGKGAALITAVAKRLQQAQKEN
The assay is described as follows: SAR analysis of small molecule inhibitors of hexokinase domain containing I (HKDC1). [Related pubchem assays (depositor defined):AID493160, AID493190]. The format is functional.

The target of a further assay is T5, Hexokinase-1 (Homo sapiens, UniProt P19367).
T5 sequence (P19367 whole entry): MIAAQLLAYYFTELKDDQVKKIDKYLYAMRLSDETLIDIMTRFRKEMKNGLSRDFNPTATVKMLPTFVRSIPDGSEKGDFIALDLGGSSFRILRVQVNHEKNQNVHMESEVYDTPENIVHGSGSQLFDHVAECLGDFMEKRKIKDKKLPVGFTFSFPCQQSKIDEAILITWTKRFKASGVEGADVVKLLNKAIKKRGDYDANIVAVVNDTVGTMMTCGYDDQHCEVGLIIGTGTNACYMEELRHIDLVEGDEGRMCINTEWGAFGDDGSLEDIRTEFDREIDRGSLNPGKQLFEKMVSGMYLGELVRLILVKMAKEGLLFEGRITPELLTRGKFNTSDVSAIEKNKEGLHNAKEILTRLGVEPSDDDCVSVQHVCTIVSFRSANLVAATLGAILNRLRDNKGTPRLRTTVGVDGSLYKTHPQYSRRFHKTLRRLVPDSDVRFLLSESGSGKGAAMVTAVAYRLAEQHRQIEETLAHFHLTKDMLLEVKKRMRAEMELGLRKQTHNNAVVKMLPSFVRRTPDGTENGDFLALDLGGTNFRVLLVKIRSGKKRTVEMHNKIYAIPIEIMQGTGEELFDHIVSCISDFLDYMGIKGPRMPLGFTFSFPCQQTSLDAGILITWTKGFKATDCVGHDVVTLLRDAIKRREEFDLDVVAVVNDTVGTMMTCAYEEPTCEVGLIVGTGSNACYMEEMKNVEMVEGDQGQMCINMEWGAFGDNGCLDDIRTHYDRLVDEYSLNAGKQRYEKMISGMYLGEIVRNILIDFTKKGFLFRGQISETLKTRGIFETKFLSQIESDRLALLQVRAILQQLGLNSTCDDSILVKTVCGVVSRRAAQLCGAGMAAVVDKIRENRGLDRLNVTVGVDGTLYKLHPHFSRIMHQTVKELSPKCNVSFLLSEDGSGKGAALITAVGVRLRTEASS
Briefly: SAR analysis of small molecule inhibitors of hexokinase domain containing I (HKDC1) in the hexokinase 1 selectivity assay. [Related pubchem assays (depositor defined):AID493160, AID493190]. The format is functional.

In another assay the test system is CHO. Briefly: CHO cell viability loss, potency – luminescence, cytotoxicity control for TLR9-MyD88 binding inhibitor project, dose response (AID 588339).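 Further: CHO cells stably coexpressing TLR9 and MyD88 fusions from primary screen; compound exposure lasted 48 hours before viability readout.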 The note with it: Cricetulus griseus. It is filed as functional, cell-based, hamster.
A short description of assay [13]: reduction of Shn3 3'UTR-driven luciferase in osteoblasts – cell-based, Clone20 osteoblasts, firefly luciferase, cherry-picked, dose response (AID 624132).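 Further: firefly luciferase luminescence from reporter carrying the Shn3 3'UTR in osteoblasts.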 The format is functional.
Another assay deals with INS1. Briefly: INS-1E survival protection against cytokine death – cell-based, luminescence, retest, dose response (AID 449756).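 Further: cell death triggered by IL-1 beta plus TNF-alpha plus IFN-gamma mixture; protective hits raise ATP signal compared with cytokine alone wells.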 It is filed as functional. As to conditions: Rattus norvegicus.
Assay [14] can be described thus: non-specific 3'UTR reporter inhibition in Clone20-Shn3RL – cell-based, Renilla luciferase, cherry-picked, counter-screen for Shn3 inhibitor project, dose response (AID 624133). The format is functional.
Assay [15] in a line: microbe, parasite or virus in culture. The format is functional. As to conditions: Mycobacterium tuberculosis.
Assay [16] is described as follows: loss of viability in HepG2 cells – cell-based, CellTiter-Glo, cherry-picked, cytotoxicity control for Shn3 inhibitor project, dose response (AID 624134). The format is functional.

Where “and” joins values, the source holds several entries; their conditions need not be identical. Equal values may be shown once. Calls of active or inactive are those of the source. Some results are limits rather than exact numbers.

Sequence of Nonstructural protein 1 (Q194T2 whole entry): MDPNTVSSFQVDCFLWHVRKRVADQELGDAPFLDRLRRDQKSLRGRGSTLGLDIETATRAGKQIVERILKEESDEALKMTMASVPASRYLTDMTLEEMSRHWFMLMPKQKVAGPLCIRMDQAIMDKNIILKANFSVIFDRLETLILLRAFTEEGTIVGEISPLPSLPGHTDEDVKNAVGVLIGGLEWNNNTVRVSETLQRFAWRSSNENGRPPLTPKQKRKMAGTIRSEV
Sequence of Voltage-gated inwardly rectifying potassium channel KCNH2 (Q12809 whole entry): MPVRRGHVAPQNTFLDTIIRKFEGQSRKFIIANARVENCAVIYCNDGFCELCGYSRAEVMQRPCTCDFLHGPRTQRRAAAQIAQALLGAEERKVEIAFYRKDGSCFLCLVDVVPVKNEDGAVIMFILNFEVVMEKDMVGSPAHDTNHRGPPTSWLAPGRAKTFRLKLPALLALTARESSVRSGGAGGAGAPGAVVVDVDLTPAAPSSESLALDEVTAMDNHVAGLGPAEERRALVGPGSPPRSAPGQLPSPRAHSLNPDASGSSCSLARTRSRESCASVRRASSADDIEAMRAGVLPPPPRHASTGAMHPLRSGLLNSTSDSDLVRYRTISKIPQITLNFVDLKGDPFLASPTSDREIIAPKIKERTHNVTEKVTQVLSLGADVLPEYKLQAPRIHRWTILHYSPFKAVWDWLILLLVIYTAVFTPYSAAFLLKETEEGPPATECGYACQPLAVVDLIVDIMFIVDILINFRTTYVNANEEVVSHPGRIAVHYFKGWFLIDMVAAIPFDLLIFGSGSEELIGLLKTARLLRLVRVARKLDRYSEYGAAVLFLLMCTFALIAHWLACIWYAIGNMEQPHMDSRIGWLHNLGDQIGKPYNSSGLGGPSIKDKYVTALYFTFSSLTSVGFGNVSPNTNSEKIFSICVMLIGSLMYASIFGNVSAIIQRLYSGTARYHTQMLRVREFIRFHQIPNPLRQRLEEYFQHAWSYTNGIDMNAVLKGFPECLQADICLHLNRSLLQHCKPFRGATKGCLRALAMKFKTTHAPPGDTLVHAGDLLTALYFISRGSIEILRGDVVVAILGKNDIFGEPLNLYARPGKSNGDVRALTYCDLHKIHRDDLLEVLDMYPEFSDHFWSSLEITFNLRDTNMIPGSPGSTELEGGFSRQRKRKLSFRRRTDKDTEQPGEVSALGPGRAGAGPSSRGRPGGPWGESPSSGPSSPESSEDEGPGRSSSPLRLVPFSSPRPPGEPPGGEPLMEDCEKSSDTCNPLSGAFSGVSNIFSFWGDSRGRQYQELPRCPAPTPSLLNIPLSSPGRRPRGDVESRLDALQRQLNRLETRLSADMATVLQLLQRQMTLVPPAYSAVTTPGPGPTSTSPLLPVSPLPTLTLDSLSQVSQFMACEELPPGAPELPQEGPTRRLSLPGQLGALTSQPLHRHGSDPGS
Sequence of Glyceraldehyde-3-phosphate dehydrogenase (P04406 whole entry): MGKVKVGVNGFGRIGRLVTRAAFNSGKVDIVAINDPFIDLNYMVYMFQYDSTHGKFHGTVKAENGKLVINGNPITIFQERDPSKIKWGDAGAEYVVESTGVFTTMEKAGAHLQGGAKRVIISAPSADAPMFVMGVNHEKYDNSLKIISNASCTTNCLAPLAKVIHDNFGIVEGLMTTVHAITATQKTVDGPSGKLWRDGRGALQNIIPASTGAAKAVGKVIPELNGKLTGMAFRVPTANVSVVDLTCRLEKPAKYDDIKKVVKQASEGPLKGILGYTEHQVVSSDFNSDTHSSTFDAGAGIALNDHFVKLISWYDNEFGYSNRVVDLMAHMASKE
Sequence of Dual specificity protein phosphatase 3 (P51452 whole entry): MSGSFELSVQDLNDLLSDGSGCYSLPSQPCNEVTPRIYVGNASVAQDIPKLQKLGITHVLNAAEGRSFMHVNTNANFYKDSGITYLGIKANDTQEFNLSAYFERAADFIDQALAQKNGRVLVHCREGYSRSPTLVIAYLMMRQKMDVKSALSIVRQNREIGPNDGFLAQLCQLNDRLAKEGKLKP
Sequence of Eukaryotic translation initiation factor 4E (P63073 whole entry): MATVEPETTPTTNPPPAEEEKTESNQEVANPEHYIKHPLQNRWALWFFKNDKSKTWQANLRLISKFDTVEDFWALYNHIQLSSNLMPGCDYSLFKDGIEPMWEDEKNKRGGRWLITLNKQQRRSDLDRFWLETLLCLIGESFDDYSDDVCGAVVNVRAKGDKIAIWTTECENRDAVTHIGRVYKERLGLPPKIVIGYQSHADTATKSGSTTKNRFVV
Sequence of Alkaline phosphatase, placental type (P05187 whole entry): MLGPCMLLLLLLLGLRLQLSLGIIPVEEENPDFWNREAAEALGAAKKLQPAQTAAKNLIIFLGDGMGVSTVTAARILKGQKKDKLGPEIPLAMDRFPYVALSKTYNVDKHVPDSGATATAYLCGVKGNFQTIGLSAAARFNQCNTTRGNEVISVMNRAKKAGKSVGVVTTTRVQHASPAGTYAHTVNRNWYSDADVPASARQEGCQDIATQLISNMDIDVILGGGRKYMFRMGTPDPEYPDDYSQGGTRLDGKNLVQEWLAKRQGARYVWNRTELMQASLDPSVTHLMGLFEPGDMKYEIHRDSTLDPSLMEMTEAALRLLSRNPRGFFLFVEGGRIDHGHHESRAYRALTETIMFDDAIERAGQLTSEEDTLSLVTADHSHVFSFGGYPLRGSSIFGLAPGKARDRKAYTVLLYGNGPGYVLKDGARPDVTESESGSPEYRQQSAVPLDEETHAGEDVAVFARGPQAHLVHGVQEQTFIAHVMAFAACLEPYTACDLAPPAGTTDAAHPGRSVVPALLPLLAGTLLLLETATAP

As to `COc1nc(C)ccc1-c1noc(-c2ccncc2)n1`, in the assay with HeLa, the AC50 is 40 µM (active).

With `NS(=O)(=O)c1cc(C(=O)NC2CCOc3ccccc32)ccc1Cl` (centres undefined), the IC50 in assay [1] and in assay [2] was > 100 µM (inactive) throughout.

For `N=C(NOC(=O)C12CC3CC(CC(C3)C1)C2)c1ccccn1`, the AC50 in the assay on HeLa was 27.5 µM (active).

Consider `Cc1ccccc1C(N)=O`, for which the AC50 in assay [3] is 35.5 µM (inconclusive).

Regarding `Cc1ccccc1N1C(=O)c2cc(S(N)(=O)=O)c(Cl)cc2NC1C` (centres undefined) [METOLAZONE], the AC50 in [3] is 0.112 µM (inconclusive).

With `c1ccc(-c2nnc(-c3ccccn3)[nH]2)nc1`, the IC50 in [4] is > 100 µM (not active); at Nonstructural protein 1, 2.78 µM (active) and 2.89 µM (active); in assay [5] it was > 100 µM (inactive); in the assay “cells”, 2.02 µM (active).

Consider `Clc1ccc(/N=c2\ssnc2Cl)cc1`, for which the IC50 in [6] was > 50 µM (not active); in assay [7] it was 12.5 µM (active); at Phosphomannomutase 2, > 100 µM (inactive); in assay [9], 28.2 µM (active). In assay [8], the AC50 was 8.4 µM (active).

`Cc1cc(N2CCN(C(=O)c3ccc(Cl)cc3)CC2)c2ccc(F)cc2n1`: the AC50 was 14.4 µM (active) in the assay on Candida albicans [10], 49.3 µM (active) with Candida albicans [11] and 15.8 µM (active) with Candida albicans [12].

For `O=c1c2ccccc2nc(/C=C/c2cccnc2)n1Cc1cccc(Cl)c1`, the IC50 at Hexokinase HKDC1 and at Hexokinase-1 was > 80 µM (inactive) in each case.

With `Cc1ccc(-n2c(Cl)c(Cl)nc(Cl)c2=O)cc1`, the IC50 with CHO was 1.39 µM (active). Further, the AC50 in [13] is 1.77 µM (active); in the assay on INS1, 4.43 µM (active); in [14], 3.58 µM (active); in assay [16], 8.89 µM (active); in assay [8], 1.38 µM (active). Moreover, the CC50 in [15] was 39.1 µM (active).

Turning to `Cc1nn(-c2ccccc2)c(S)c1C=Nc1cccc([N+](=O)[O-])c1`, the IC50 was 31.1 µM (active) in [7] and > 100 µM (inactive) at Phosphomannomutase 2.

What is called AC50 is the concentration giving half of the maximal activity seen. As a reminder, the IC50 is the concentration at which inhibition is half-maximal.
